Reference: patent US20230031406A1, “COMPOUNDS AND COMPOSITIONS FOR TREATING CONDITIONS ASSOCIATED WITH NLRP ACTIVITY” (Novartis AG, priority 2018, published 2023)
Where two headings read alike, the source gives them in different places.

System: PMA-differentiated THP-1 cells
Experiment: IL-1β production in PMA-differentiated THP-1 cells stimulated with gramicidin (hTHP-1 assay containing 2% fetal bovine serum; Procedures 1 and 2)
Assay type: cell-based, human
Conditions: 2% fetal bovine serum
Outline: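 PMA-primed (20 ng/ml, 16-18 h) THP-1 cells in RPMI with 2% FBS, 50,000 cells/well, were preincubated 1 h with compound (0.0017-100 μM final, 0.37% DMSO), then stimulated 2 h with 5 μM gramicidin. Supernatant IL-1β measured by HTRF.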

[1] = Table B1, class symbols, read-out: Average IC50 of compounds in hTHP-1 assay: hTHP-1 IC50
[2] = Homo sapiens, THP-1, Table B1, class symbols, read-out: Average IC50 of compounds in hTHP-1 assay: hTHP-1 IC50

## CCC1CCc2c1nc1c(c2NC(=O)N=S(N)(=O)c2ccn(C(F)F)n2)CCC1 (single isomer, unassigned) [Compound 668d, (S, R) or (S, S) or (R, S) or (R, R)-1-(Difluoromethyl)-N′-((3-ethyl-1,2,3,5,6,7-hexahydrodicyclopenta [b,e]pyridin-8-yl)carbamoyl)-1H-pyrazole-3-sulfonimidamide]
Table B2, numeric bounds, read-out: hTHP-1 IC50
  IC50: > 30000 nM

## CC(C)(O)c1cc(F)c(S(N)(=O)=NC(=O)Nc2c3c(nc4c2CCC4(C)C)CCC3)s1 (single isomer, unassigned) [Compound 102b, (R) or (S)-N′-((3,3-dimethyl-1,2,3,5,6,7-hexahydro-dicyclopenta[b,e]pyridin-8-yl)carbamoyl)-3-fluoro-5-(2-hydroxy-propan-2-yl)thiophene-2-sulfonimidamide]
[1]
  IC50: 8 to 40 nM

## CCC1CCc2c1nc1c(c2NC(=O)N=S(N)(=O)c2ccn(C(F)F)n2)CCC1 (single isomer, unassigned) [Compound 668a, (S, S) or (S, R) or (R, S) or (R, R)-1-(Difluoromethyl)-N′-((3-ethyl-1,2,3,5,6,7-hexahydrodicyclopenta [b,e]pyridin-8-yl)carbamoyl)-1H-pyrazole-3-sulfonimidamide]
Homo sapiens, THP-1, Table B2, numeric bounds, read-out: hTHP-1 IC50
  IC50: > 30000 nM

## CNS(=O)(=NC(=O)Nc1c2c(nc3c1CCC3)CCC2)c1ccc(CN(C)C)cc1 (stereo not drawn) [Compound 120, 4-((Dimethylamino)methyl)-N′-((1,2,3,5,6,7-hexahydrodicyclopenta[b,e]pyridin-8-yl)carbamoyl)-N-methylbenzenesulfonimidamide]
[2]
  IC50: 200 to 1000 nM

## CC(C)(O)c1nc(S(N)(=O)=NC(=O)Nc2c3c(nc4c2CCC4)CCC3)cs1 (stereo not drawn) [Compound 154]
[2]
  IC50: 200 to 1000 nM

## CCn1cc(F)c(S(N)(=O)=NC(=O)Nc2c3c(nc(C(F)(F)F)c2-c2ccccc2F)CCC3)n1 (single isomer, unassigned) [Example 779, (R) or (S)-1-ethyl-4-fluoro-N′-((3-(2-fluorophenyl)-2-(trifluoromethyl)-6,7-dihydro-5H-cyclopenta[b]pyridin-4-yl)carbamoyl)-1H-pyrazole-3-sulfonimidamide]
Table B4, class symbols, read-out: hTHP-1 IC50
  IC50: 8 to 40 nM

## CC(C)(O)c1ncc(S(N)(=O)=NC(=O)Nc2c3c(nc4c2CCC4)CCCC3)s1 (single isomer, unassigned) [Compound 161b, (R) or (S)-N′-((2,3,5,6,7,8-hexahydro-1H-cyclopenta[b]quinolin-9-yl)carbamoyl)-2-(2-hydroxypropan-2-yl)thiazole-5-sulfonimidamide]
[1]
  IC50: 1000 to 5000 nM

## CC(C)(O)c1csc(S(N)(=O)=NC(=O)Nc2c3c(nc4c2CCC4)CCC3)c1 (stereo not drawn) [Compound 155, N′-((1,2,3,5,6,7-hexahydrodicyclopenta[b,e]pyridin-8-yl)carbamoyl)-4-(2-hydroxypropan-2-yl)thiophene-2-sulfonimidamide]
[2]
  IC50: 40 to 200 nM

## CC(C)(O)c1ccc(S(N)(=O)=NC(=O)Nc2c3c(nc4c2CCC4)CCC3)s1 (single isomer, unassigned) [Compound 149a, (R) or (S)-N′-((1,2,3,5,6,7-hexahydrodicyclo-penta[b,e]pyridin-8-yl)carbamoyl)-5-(2-hydroxypropan-2-yl)thiophene-2-sulfonimidamide]
[2]
  IC50: 200 to 1000 nM

## CCc1c(C(F)(F)F)nc2c(c1NC(=O)N=S(N)(=O)c1nn(CC)cc1F)CCC2 (stereo not drawn) [Example 743, 1-Ethyl-N′-((3-ethyl-2-(trifluoromethyl)-6,7-dihydro-5H-cyclopenta[b]pyridin-4-yl)carbamoyl)-4-fluoro-1H-pyrazole-3-sulfonimidamide]
Homo sapiens, THP-1, Table B4, class symbols, read-out: hTHP-1 IC50
  IC50: 1000 to 5000 nM

## Cc1c(C(C)C)nc2c(c1NC(=O)N=S(N)(=O)c1cnc(C(C)(C)O)s1)CCC2 (single isomer, unassigned) [Compound 650b, (S) or (R)-2-(2-Hydroxypropan-2-yl)-N′-((2-isopropyl-3-methyl-6,7-dihydro-5H-cyclopenta[b]pyridin-4-yl)carbamoyl)thiazole-5-sulfonimidamide]
Table B2, class symbols, read-out: hTHP-1 IC50
  IC50: 5000 to 30000 nM

## C[C@](O)(CO)c1cc(F)c(S(N)(=O)=NC(=O)Nc2c3c(nc4c2CCC42CC2)CCC3)s1 (stereo partly drawn) [Compound 716a]
Homo sapiens, THP-1, Table B2, class symbols, read-out: hTHP-1 IC50
  IC50: 40 to 200 nM
